Assay results from PubChem BioAssay AID248 (DTP/NCI, 2004).
Where “and” joins values, the source holds several entries; their conditions need not be identical. Identical values can stand only once. Toxic doses and inconclusive results are not listed. No stated cut-off is given here; in the data, active means T/C of 150% or more; inactive means T/C below 125%.

Tested on: L1210 leukemia ip in BDF1 mice, survival T/C
Test: NCI In Vivo Anticancer Drug Screen. Data for tumor model L1210 Leukemia (intraperitoneal) in B6D2F1 (BDF1) mice
Conditions: endpoint: mean survival time, higher = longer survival
How it was run: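 In this screen, tumor-bearing mice given compound are compared to those given vehicle, and their survival values are reported as a treated-to-control quotient.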

[1] = dose: 100.0 mg/kg/injection, schedule: Q01DX001 (ip), vehicle: saline
[2] = dose: 200.0 mg/kg/injection, schedule: Q01DX001 (ip), vehicle: saline
[3] = dose: 25.0 mg/kg/injection, schedule: Q01DX009 (ip), vehicle: saline with Tween-80
[4] = dose: 50.0 mg/kg/injection, schedule: Q01DX009 (ip), vehicle: saline with Tween-80
[5] = dose: 100.0 mg/kg/injection, schedule: Q01DX009 (ip), vehicle: saline with Tween-80
[6] = dose: 200.0 mg/kg/injection, schedule: Q01DX009 (ip), vehicle: saline with Tween-80
[7] = dose: 400.0 mg/kg/injection, schedule: Q01DX009 (ip), vehicle: saline with Tween-80
[8] = dose: 100.0 mg/kg/injection, schedule: Q04DX003 (ip), vehicle: Klucel (hydroxypropylcellulose) (HPC)
[9] = dose: 200.0 mg/kg/injection, schedule: Q04DX003 (ip), vehicle: Klucel (hydroxypropylcellulose) (HPC)
[10] = dose: 400.0 mg/kg/injection, schedule: Q04DX003 (ip), vehicle: Klucel (hydroxypropylcellulose) (HPC)
[11] = dose: 100.0 mg/kg/injection, schedule: Q04DX003 (ip), vehicle: saline with Tween-80
[12] = dose: 200.0 mg/kg/injection, schedule: Q04DX003 (ip), vehicle: saline with Tween-80

Measured: T/C

Nc1nc(N)c2ncn(C3OC(CO)C(O)C3O)c2n1 (stereo unspecified)
inactive: [1] 102 % of control | [2] 115 % of control

O/N=C1\c2ccccc2-c2cccc(I)c21
inactive: dose: 100.0 mg/kg/injection, schedule: Q01DX001 (ip), vehicle: carboxymethylcellulose (CMC) 92 % of control | dose: 200.0 mg/kg/injection, schedule: Q01DX001 (ip), vehicle: carboxymethylcellulose (CMC) 92 % of control | dose: 400.0 mg/kg/injection, schedule: Q01DX001 (ip), vehicle: carboxymethylcellulose (CMC) 94 % of control

COc1ccc(C(=S)N(C)NC(=O)CC(=O)NN(C)C(=S)c2ccc(OC)cc2)cc1
inactive: dose: 100.0 mg/kg/injection, schedule: Q01DX009 (ip), vehicle: gum acacia 95 % of control | dose: 100.0 mg/kg/injection, schedule: Q04DX003 (ip), vehicle: gum acacia 92 % of control | dose: 200.0 mg/kg/injection, schedule: Q01DX009 (ip), vehicle: gum acacia 90 % of control | dose: 200.0 mg/kg/injection, schedule: Q04DX003 (ip), vehicle: gum acacia 95 % of control | dose: 400.0 mg/kg/injection, schedule: Q04DX003 (ip), vehicle: gum acacia 96 % of control

CC(C)(O)C(=O)NC/C=C/c1ccccc1
inactive: [3] 93 % of control | [4] 93 % of control | [5] 93 % of control

Cc1cccc(N2CCN(CCO)CC2)c1
inactive: dose: 50.0 mg/kg/injection, schedule: Q01DX009 (ip), vehicle: saline 106 % of control

COC(=O)C/C=C/CC(=O)OC
inactive: [5] 95 % of control | [6] 90 % of control | [7] 88 % of control

S=c1nc[nH]c2ncccc12
inactive: [8] 104 % of control | [9] 100 % of control | [10] 97 % of control

O=C1CCN(Cc2ccco2)C(=S)N1
inactive: dose: 25.0 mg/kg/injection, schedule: Q01DX Z (ip), vehicle: methylcellulose (MC) 101 % of control | dose: 50.0 mg/kg/injection, schedule: Q01DX Z (ip), vehicle: methylcellulose (MC) 97 % of control

COc1c(N)cc2c(c1C)OC(C)(C)C=C2
inactive: [3] 109 % of control | [4] 101 % of control | [11] 101 % of control and 94 % of control | [12] 100 % of control

COc1ccc(NC(=O)Oc2c(C(C)C)cccc2C(C)C)cc1
inactive: [8] 100 % of control | [9] 96 % of control | [10] 92 % of control

CCOC(=O)CCC(N)C(=O)OCC (stereo unspecified)
inactive: [1] 95 % of control and 91 % of control | dose: 100.0 mg/kg/injection, schedule: Q01DX009 (ip), vehicle: saline 96 % of control | [2] 91 % of control | dose: 200.0 mg/kg/injection, schedule: Q01DX009 (ip), vehicle: saline 88 % of control | dose: 400.0 mg/kg/injection, schedule: Q01DX001 (ip), vehicle: saline 98 % of control and 86 % of control

C=C(C)C(=O)OC1CC23OC2CC(COC3O)C2OC2C2OC(=O)C(=C)C12 (stereo unspecified)
inactive: dose: 6.25 mg/kg/injection, schedule: Q01DX009 (ip), vehicle: acetone 98 % of control | dose: 12.5 mg/kg/injection, schedule: Q01DX001 (ip), vehicle: acetone 106 % of control | dose: 12.5 mg/kg/injection, schedule: Q01DX009 (ip), vehicle: acetone 104 % of control | dose: 12.5 mg/kg/injection, schedule: Q04DX003 (ip), vehicle: acetone 90 % of control | dose: 25.0 mg/kg/injection, schedule: Q01DX001 (ip), vehicle: acetone 106 % of control | dose: 25.0 mg/kg/injection, schedule: Q04DX003 (ip), vehicle: acetone 104 % of control | dose: 50.0 mg/kg/injection, schedule: Q01DX001 (ip), vehicle: acetone 109 % of control

Cc1ccc(-n2c(=S)[nH]c3ccccc3c2=O)cc1C
inactive: dose: 100.0 mg/kg/injection, schedule: Q01DX009 (ip), vehicle: Klucel (hydroxypropylcellulose) (HPC) 90 % of control | [8] 96 % of control | dose: 200.0 mg/kg/injection, schedule: Q01DX009 (ip), vehicle: Klucel (hydroxypropylcellulose) (HPC) 90 % of control | [9] 93 % of control | dose: 400.0 mg/kg/injection, schedule: Q01DX009 (ip), vehicle: Klucel (hydroxypropylcellulose) (HPC) 92 % of control | [10] 93 % of control

CC(CO)CCCC(C)C1CCC2C3CC=C4CC(O)CCC4(C)C3CCC12C (stereo unspecified)
inactive: dose: 100.0 mg/kg/injection, schedule: Q01DX001 (ip), vehicle: saline with Tween-80 94 % of control | dose: 200.0 mg/kg/injection, schedule: Q01DX001 (ip), vehicle: saline with Tween-80 90 % of control | dose: 400.0 mg/kg/injection, schedule: Q01DX001 (ip), vehicle: saline with Tween-80 100 % of control

Cc1ccn(-c2ccccc2)n1
inactive: dose: 100.0 mg/kg/injection, schedule: Q01DX009 (ip), vehicle: other 100 % of control | dose: 100.0 mg/kg/injection, schedule: Q04DX003 (ip), vehicle: other 101 % of control | dose: 200.0 mg/kg/injection, schedule: Q01DX009 (ip), vehicle: other 90 % of control | dose: 200.0 mg/kg/injection, schedule: Q04DX003 (ip), vehicle: other 104 % of control | dose: 400.0 mg/kg/injection, schedule: Q01DX009 (ip), vehicle: other 107 % of control | dose: 400.0 mg/kg/injection, schedule: Q04DX003 (ip), vehicle: other 104 % of control

CCCCCCCCCCCCCCCCNc1cccc2ccccc12
inactive: [8] 90 % of control | [9] 90 % of control | [10] 91 % of control

CC(=O)C(C(=O)NCc1ccccc1)C(c1cccc([N+](=O)[O-])c1)C(C(C)=O)C(=O)NCc1ccccc1 (stereo unspecified)
inactive: dose: 25.6 mg/kg/injection, schedule: Q04DX002 (ip), vehicle: saline with Tween-80 95 % of control | dose: 64.0 mg/kg/injection, schedule: Q04DX002 (ip), vehicle: saline with Tween-80 95 % of control | dose: 160.0 mg/kg/injection, schedule: Q04DX002 (ip), vehicle: saline with Tween-80 95 % of control | [12] 87 % of control | dose: 400.0 mg/kg/injection, schedule: Q04DX002 (ip), vehicle: saline with Tween-80 95 % of control | dose: 400.0 mg/kg/injection, schedule: Q04DX003 (ip), vehicle: saline with Tween-80 87 % of control

Cc1c2ccccc2c(CN(C)CC(=O)O)c2ccccc12
inactive: [4] 92 % of control | [5] 90 % of control | [6] 92 % of control

[Cl][Hg][c]1cccs1
inactive: dose: 12.5 mg/kg/injection, schedule: Q01DX009 (ip), vehicle: Klucel (hydroxypropylcellulose) (HPC) 95 % of control | dose: 25.0 mg/kg/injection, schedule: Q01DX009 (ip), vehicle: Klucel (hydroxypropylcellulose) (HPC) 93 % of control

CCCN(CCC)CCCCO
inactive: [4] 102 % of control | [5] 95 % of control | [11] 92 % of control | [6] 102 % of control | [12] 102 % of control

CC(=O)Nc1ccc(S(=O)(=O)SC(F)(F)F)cc1
inactive: dose: 5.0 mg/kg/injection, schedule: Q01DX001 (ip), vehicle: saline 97 % of control | dose: 10.0 mg/kg/injection, schedule: Q01DX001 (ip), vehicle: saline 98 % of control | dose: 20.0 mg/kg/injection, schedule: Q01DX001 (ip), vehicle: saline 101 % of control

CC/S(=N\S(=O)(=O)c1ccc(C)cc1)c1ccccc1 (stereo unspecified)
inactive: [5] 108 % of control | [6] 100 % of control | [7] 100 % of control

c1ccc(CSc2ncnc3nc[nH]c23)nc1
inactive: dose: 50.0 mg/kg/injection, schedule: Q04DX003 (ip), vehicle: saline sonified 116 % of control | dose: 100.0 mg/kg/injection, schedule: Q04DX003 (ip), vehicle: saline sonified 113 % of control

CCN(CC)CCNCc1ccc(Cl)cc1
inactive: dose: 25.0 mg/kg/injection, schedule: Q04DX003 (ip), vehicle: Klucel (hydroxypropylcellulose) (HPC) 92 % of control | dose: 50.0 mg/kg/injection, schedule: Q04DX003 (ip), vehicle: Klucel (hydroxypropylcellulose) (HPC) 96 % of control | dose: 75.0 mg/kg/injection, schedule: Q04DX003 (ip), vehicle: Klucel (hydroxypropylcellulose) (HPC) 96 % of control and 103 % of control
